For one data set, the system named is FLT3. Put plainly: FLT3 enzymatic assay. The data set is classed as biochemical. The procedure:
Example C. FLT3 Enzymatic Assay
(§1) The kinase assays were carried out at room temperature in assay buffer (HEPES 50 mM, pH 7.0, NaN3 0.02%, BSA 0.01%, Orthovanadate 0.1 mM, DTT 1 mM, MgCl2 10 mM) in a final volume of 10 μL. Testing compounds were prepared by serial dilution in DMSO and transferred to the plate wells by ECHO liquid handler (Labcyte) with 0.5% DMSO in the final assay. […]. Reactions were initiated by the addition of 5 μL ATP in assay buffer. The final 10 μL kinase reaction consists of 0.011 nM FLT3, 1 mM ATP, 500 nM TK Substrate-biotin and SEB reagent 62.5 nM in assay buffer. […] The plates were then sealed and centrifuged at 1800 rpm for 2 minutes. After 60 minutes incubation at room temperature, the product activity was determined by measuring the fluorescence at 620 nm and 665 nm on Pherastar microplate reader (BMG Labtech). A ratio is calculated (665/620 nm) for each well. Wells with DMSO only were served as the positive controls and wells containing no ATP were used as negative controls. IC50 determination was performed by fitting the curve of percent control activity versus the log of the compound concentration using the GraphPad Prism 7.0 software.

Data set [1] has as its system STAT5 (Tyr694) phosphorylation in SET-2 cells. Put plainly: STAT5 (Tyr694) phosphorylation cell based assay. Conditions: Homo sapiens, pSTAT5, 2 hours, read-out: SET2 IC50. The procedure: Example E. STAT5 (Tyr694) Phosphorylation Cell Based Assay
SET-2 cells was purchased from DSMZ (Germany). RPMI1640 medium, Fetal Bovine Serum and 384-white sold flat-bottom small volume plate were purchased from Thermo Fisher Scientific (Waltham, MA). Phospho-STAT5 (Tyr694) HTRF kit was purchased from Perkin Elmer (Waltham, MA).
SET-2 cells were cultured in RPMI media with 20% FBS at 37° C. in humidified incubator supplied with 5% CO2. On the day of assay, the cells were centrifuged to remove the culture media and resuspended with prewarmed RPMI with 10% FBS. Testing compounds were prepared by serial dilution in DMSO and 50 nL/well test compounds were transferred to the 384 white low volume cell culture plate (Greiner Bio-one) by ECHO liquid handler (Labcyte). The cells were then dispensed with Multidrop (Thermo Fisher, Waltham, MA) at 10 μL/well (7×10^6 cells/mL) with 0.5% DMSO in the final assay. After the treated cells were incubated for 2 hours at 37° C./5% CO2 incubator, 4 μL/well supplemented lysis buffer (100× blocking buffer diluted 25 fold in 4× lysis buffer, Perkin Elmer) were added and incubated at room temperature for 90 min on orbital shaker at 600 rpm. Phospho-STAT5 Cryptate antibody and Phospho-STAT5 d2 antibody (1:1 vol/vol) were premixed and diluted 20 fold with in the detection buffer (Perkin Elmer). 4 μL of the premixed antibody solution were added to each well followed with 24 hours incubation at room temperature on orbital shaker at 600 rpm. The product activity was determined by measuring the fluorescence at 620 nm and 665 nm on Pherastar microplate reader (BMG Labtech). A ratio is calculated (665/620) for each well. Wells with DMSO only served as the positive controls and wells containing high concentration of control compound were used as negative controls. IC50 determination was performed by fitting the curve of percent control activity versus the log of the compound concentration using the GraphPad Prism 7.0 software.

The target of data set [2] is TRKA (Homo sapiens, UniProt P04629). In words: TRKA enzymatic assay. In kind it is biochemical. As to conditions: 1 mM ATP. The procedure: (§2) Example I. TRKA Enzymatic Assay
(§3) The kinase assays were carried out at 24° C. temperature in assay buffer (HEPES 50 mM, pH 7.0, NaN3 0.02%, BSA 0.01%, Orthovanadate 0.1 mM, DTT 1 mM, MgCl2 10 mM) in a final volume of 10 μL. Testing compounds were prepared by serial dilution in DMSO and transferred to the plate wells by ECHO liquid handler (Labcyte) with 0.5% DMSO in the final assay. […]. Reactions were initiated by the addition of 5 μL ATP in assay buffer. The final 10 μL kinase reaction consists of 0.58 nM TRKA, 1 mM ATP, 500 nM TK Substrate-biotin and SEB reagent 62.5 nM in assay buffer. […] After 60 minutes incubation at room temperature, the product activity was determined by measuring the fluorescence at 620 nm and 665 nm on Pherastar microplate reader (BMG Labtech). A ratio is calculated (665/620 nm) for each well. Wells with DMSO only were served as the positive controls and wells containing no ATP were used as negative controls. IC50 determination was performed by fitting the curve of percent control activity versus the log of the compound concentration using the Gene data.

For data set [3], the system named is TRKA. In words: TRKA enzymatic assay. The data set is classed as biochemical. The procedure: as §2, §3
Data set [4] in a line: In vitro intrinsic clearance. In kind it is in vitro ADME. As to conditions: human liver microsomes, 1 μM. The procedure: Example G. In Vitro Intrinsic Clearance Protocol
For in vitro metabolic stability experiments, test compounds were incubated with human liver microsomes at 37° C. The incubation mixture contained test compounds (1 μM), NADPH (2 mM), and human liver microsomes (0.5 mg protein/mL) in 100 mM phosphate buffer (pH 7.4). The mixture was pre-incubated for 2 min at 37° C. before the addition of NADPH. Reactions were commenced upon the addition of NADPH and quenched with ice-cold methanol at 0, 10, 20, and 30 min. Terminated incubation mixtures were analyzed using LC-MS/MS system. The analytical system consisted of a Shimadzu LC-30AD binary pump system and SIL-30AC autosampler (Shimadzu Scientific Instruments, Columbia, MD) coupled with a Sciex Triple Quad 6500+ mass spectrometer from Applied Biosystems (Foster City, CA). […] Mobile phase A consisted of 0.1% formic acid in water, and mobile phase B consisted of 0.1% formic acid in acetonitrile. The total LC-MS/MS runtime was 2.75 minutes with a flow rate of 0.75 mL/min. Peak area integrations and peak area ratio calculations were performed using Analyst software (version 1.6.3) from Applied Biosystems.
The in vitro intrinsic clearance, CLint, in vitro, was calculated from the t1/2 of test compound disappearance as CLint, in vitro=(0.693/t1/2)×(1/Cprotein), where Cprotein is the protein concentration during the incubation, and t1/2 was determined by the slope (k) of the log-linear regression analysis of the concentration versus time profiles; thus, t1/2=ln 2/k. The CLint, in vitro values were scaled to the in vivo values for human by using physiologically based scaling factors, hepatic microsomal protein concentrations (45 mg protein/g liver), and liver weights (21 g/kg body weight). The equation CLint=CLint, in vitro×(mg protein/g liver weight)×(g liver weight/kg body weight) was used. The in vivo hepatic clearance (CLH) was then calculated by using CLint and hepatic blood flow, Q (20 mL·min^−1·kg^−1 in humans) in the well-stirred liver model disregarding all binding from CLH=(Q×CLint)/(Q+CLint). The hepatic extraction ratio was calculated as CLH divided by Q.
On the technique in general: Liver microsomes are vesicles of endoplasmic reticulum, rich in cytochrome P450 enzymes.

Another data set concerns KIT. Put plainly: KIT enzymatic assay. In kind it is biochemical. The procedure:
Example D. KIT Enzymatic Assay
as §1, with “0.12” for “0.011”, “KIT,” for “FLT3,”

pIC50: −log10 of the molar value.

Chain of TRKA (Homo sapiens, UniProt P04629) (P04629 33-796, species assumed): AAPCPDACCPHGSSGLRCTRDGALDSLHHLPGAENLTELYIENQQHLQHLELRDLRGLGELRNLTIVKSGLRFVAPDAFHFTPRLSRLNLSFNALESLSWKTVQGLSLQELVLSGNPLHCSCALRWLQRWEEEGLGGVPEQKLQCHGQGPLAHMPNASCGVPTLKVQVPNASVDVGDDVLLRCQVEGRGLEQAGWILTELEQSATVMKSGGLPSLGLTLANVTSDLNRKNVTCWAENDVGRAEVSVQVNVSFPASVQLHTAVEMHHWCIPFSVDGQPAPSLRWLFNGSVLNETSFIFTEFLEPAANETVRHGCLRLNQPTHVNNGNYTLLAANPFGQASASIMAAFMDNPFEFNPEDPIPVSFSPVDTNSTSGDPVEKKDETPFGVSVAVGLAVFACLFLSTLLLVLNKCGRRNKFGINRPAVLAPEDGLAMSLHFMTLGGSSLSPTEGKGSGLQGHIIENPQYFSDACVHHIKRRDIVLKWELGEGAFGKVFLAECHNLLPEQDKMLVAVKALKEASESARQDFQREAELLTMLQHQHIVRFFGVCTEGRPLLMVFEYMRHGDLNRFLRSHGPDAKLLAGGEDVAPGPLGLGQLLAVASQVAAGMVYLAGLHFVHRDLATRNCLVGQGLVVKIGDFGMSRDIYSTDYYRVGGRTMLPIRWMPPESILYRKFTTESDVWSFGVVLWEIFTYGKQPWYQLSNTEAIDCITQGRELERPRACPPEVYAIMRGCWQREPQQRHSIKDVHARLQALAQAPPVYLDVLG

Regarding `Cn1cc(-c2[nH]c3ncc4c(c3c2-c2ccc3c(cnn3C)c2)n([C@H]2CC[C@@H](CC#N)CC2)c(=O)n4C)cn1` [C, reference compound], in the data set on FLT3, the “Selectivity FLT3/JH2 V617F” value is reported as “* (selectivity of ≤500-fold)”. In addition, the pIC50 was no less than 6.52 in data set [1] and greater than 7.60 at TRKA [2]. Besides, the “Selectivity TRKA/JH2 V617F” value with TRKA [3] was “* (selectivity of ≤500-fold)”. Further, the h-IntCL result in data set [4] is recorded as “‡ ‡ ‡ (h-IntCL of >1 L/h/kg)”. For the same molecule, the “Selectivity KIT/JH2 V617F” value in the data set on KIT is recorded as “* (selectivity of ≤500-fold)”.

Take `COc1ccc(-c2c(-c3cnn(Cc4ccncc4)c3)[nH]c3ncc4c(c23)n(C2CCCC2)c(=O)n4C)cc1` [Comparative Example D, reference compound]: the pIC50 in data set [1] was no less than 6.52. Moreover, the h-IntCL entry in data set [4] was “‡ ‡ ‡ (h-IntCL of >1 L/h/kg)”.

A word on the pIC50: it is −log10 of the IC50, conventionally taken in molar units.

The record behind these values is US12084430B2, “Tricyclic urea compounds as JAK2 V617F inhibitors” (Incyte Corporation, priority 2022, dated 2024).
